Data taken from ChEMBL document CHEMBL1201862, “PubChem BioAssay data set” (2004).
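Cells were grown in 96-well plates and exposed to each compound for 48 hours at five concentrations; endpoints were interpolated linearly between bracketing concentrations, or set to the highest concentration if not reached. Abbreviation: GI50, concentration required for 50% inhibition of growth.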 Calls of active or inactive are those of the source. Cut-off read from the data, not from the text of the source: active = GI50 up to about 1.1 µM and inactive = higher.

Legend:
Test in all cases: NCI tumour cell line growth inhibition, 48 h
[1] = tested on: DLD-1
[2] = tested on: DMS-114
[3] = tested on: DMS-273
[4] = tested on: HOP-18
[5] = tested on: LXFL 529
[6] = tested on: M19-MEL
[7] = tested on: RXF 631
[8] = tested on: SNB-78
[9] = tested on: XF498

Measured: GI50

COC(=O)C1=CC2C(=O)OC1C1C(=O)NC(=O)C21 (centres undefined)
inactive: [1] > 100 µM | [2] > 100 µM | [3] > 100 µM | [4] > 100 µM | [5] > 100 µM | [6] > 100 µM | [7] > 100 µM | [8] > 100 µM | [9] > 100 µM
